In the test the target is T1, human α7 nicotinic acetylcholine receptor (α7 nAChR) (Homo sapiens, UniProt P36544).
T1 construct: gene CHRNA7; human α7 nAChR transfected in GH4C1 cells
Description: radioligand competition with on GH4C1 cells; agonism also shown by Ca2+ imaging in Neuro2a cells with PNU120596 (EC50 […]). The test is classed as cell-based. On the technique in general: Displacement assays read how much labelled ligand stays bound in the presence of the test substance.

Structures are written as SMILES.

Usually IC50 stands for the concentration that inhibits the measured activity by half. A high value points to weaker potency in that assay.

T1 sequence (P36544 23-502): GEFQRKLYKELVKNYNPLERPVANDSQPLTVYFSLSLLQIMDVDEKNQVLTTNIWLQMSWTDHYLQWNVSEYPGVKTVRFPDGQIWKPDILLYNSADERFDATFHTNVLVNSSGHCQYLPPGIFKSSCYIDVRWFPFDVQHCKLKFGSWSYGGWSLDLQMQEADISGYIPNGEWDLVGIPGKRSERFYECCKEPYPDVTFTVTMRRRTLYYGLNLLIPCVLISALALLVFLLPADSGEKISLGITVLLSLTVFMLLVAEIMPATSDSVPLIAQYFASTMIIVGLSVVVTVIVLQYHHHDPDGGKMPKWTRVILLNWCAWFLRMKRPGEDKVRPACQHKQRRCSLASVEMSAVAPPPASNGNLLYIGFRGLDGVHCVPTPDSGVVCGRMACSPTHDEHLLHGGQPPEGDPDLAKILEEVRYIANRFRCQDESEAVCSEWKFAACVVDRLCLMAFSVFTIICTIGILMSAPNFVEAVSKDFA

The molecule `C[N+](C)(C)[C@@H](Cc1c[nH]c2cc(Br)ccc12)C(=O)[O-]` [6-BHP, 6-Bromohypaphorine] yielded a half-inhibitory concentration (IC50) of 23 ± 1 µM.

(Values after article PMC4377982 (Marine Drugs, 2015).)
